In test [1] the target is His6-TEV-PDGFRβ (557-1016) (Homo sapiens (Human), UniProt P09619). The experiment in a line: PDGFRβ HTRF Assay. Format: biochemical. The note with it: read-out: PDGFR HTRF IC50. An outline of the steps: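 HTRF KinEASE-TK readout (665/620 nm ratio) of TK-biotin substrate phosphorylation by His-tagged PDGFRβ kinase domain. Enzyme and inhibitor preincubated 30 min, then ATP/substrate added for 3 h at room temperature before 60 min EDTA quench/detection.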
On the technique in general: TR-FRET usually uses a lanthanide donor and a delayed reading to cut background.

Test [2] deals with Tb-labeled inactive PDGFRβ (Homo sapiens (Human), UniProt P09619). Kind of test: PDGFRβ LanthaScreen Assay. Format: binding. The note with it: read-out: PDGFR Lantha IC50.
For test [3], the target named is PDGFRβ (Rattus norvegicus (Rat), UniProt Q05030). Kind of test: PDGFRβ Cellular Assay (PDGFRb P-Y751 HTRF in A10 cells stimulated with PDGF-BB). The note with it: read-out: PDGFR Cellular IC50. The class given is cell-based. An outline of the steps: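 Phospho-Y751 PDGFRβ was measured by HTRF in lysates of A10 rat cells. Cells received compound for 3 hours before PDGF-BB stimulation (100 ng/mL working stock).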

The results in this text go back to patent US20240109917A1 (ACTELION PHARMACEUTICALS LTD, priority 2020, published 2024).

One may read the IC50 as the concentration needed to halve the response being measured.

Sequence of Tb-labeled inactive PDGFRβ (P09619 33-1106): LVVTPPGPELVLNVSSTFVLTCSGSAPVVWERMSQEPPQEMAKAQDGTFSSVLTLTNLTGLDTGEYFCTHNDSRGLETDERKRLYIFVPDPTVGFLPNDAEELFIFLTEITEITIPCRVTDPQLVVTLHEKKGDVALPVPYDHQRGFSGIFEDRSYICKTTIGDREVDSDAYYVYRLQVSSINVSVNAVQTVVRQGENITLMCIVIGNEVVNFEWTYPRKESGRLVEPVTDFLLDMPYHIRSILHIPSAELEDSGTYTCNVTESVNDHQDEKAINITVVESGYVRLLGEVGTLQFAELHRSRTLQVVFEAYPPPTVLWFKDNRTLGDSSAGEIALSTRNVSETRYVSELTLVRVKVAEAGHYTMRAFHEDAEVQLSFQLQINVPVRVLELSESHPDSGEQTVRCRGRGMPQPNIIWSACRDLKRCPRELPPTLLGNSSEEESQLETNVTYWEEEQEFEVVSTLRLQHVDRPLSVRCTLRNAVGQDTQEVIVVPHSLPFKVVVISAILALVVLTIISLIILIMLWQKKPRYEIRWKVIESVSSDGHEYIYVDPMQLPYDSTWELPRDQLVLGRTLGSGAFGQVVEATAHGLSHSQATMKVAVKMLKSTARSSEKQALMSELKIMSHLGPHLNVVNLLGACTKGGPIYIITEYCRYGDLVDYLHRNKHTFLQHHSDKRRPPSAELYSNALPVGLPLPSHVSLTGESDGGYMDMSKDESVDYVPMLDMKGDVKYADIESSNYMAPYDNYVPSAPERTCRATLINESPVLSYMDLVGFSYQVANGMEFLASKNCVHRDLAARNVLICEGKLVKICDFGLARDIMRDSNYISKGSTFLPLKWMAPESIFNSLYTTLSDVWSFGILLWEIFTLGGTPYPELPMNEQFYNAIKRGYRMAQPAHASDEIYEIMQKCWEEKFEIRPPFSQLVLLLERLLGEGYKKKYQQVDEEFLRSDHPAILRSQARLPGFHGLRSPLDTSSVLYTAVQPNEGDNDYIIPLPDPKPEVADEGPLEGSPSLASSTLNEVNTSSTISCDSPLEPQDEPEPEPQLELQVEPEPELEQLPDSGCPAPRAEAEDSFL
Sequence of His6-TEV-PDGFRβ (557-1016) (P09619 557-1016): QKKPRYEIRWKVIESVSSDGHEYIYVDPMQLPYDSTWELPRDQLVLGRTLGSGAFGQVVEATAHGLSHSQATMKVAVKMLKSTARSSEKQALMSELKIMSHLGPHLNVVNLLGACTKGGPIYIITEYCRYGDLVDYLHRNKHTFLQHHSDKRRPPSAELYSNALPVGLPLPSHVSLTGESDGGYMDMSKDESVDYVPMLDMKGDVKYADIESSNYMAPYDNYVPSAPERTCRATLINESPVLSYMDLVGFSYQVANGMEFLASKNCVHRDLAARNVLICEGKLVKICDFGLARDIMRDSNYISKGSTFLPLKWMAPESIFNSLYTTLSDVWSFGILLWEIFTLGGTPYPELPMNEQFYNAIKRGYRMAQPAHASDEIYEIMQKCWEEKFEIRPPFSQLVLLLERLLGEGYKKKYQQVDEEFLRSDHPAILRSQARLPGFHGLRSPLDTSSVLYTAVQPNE
Sequence of PDGFRβ (Q05030 32-1097): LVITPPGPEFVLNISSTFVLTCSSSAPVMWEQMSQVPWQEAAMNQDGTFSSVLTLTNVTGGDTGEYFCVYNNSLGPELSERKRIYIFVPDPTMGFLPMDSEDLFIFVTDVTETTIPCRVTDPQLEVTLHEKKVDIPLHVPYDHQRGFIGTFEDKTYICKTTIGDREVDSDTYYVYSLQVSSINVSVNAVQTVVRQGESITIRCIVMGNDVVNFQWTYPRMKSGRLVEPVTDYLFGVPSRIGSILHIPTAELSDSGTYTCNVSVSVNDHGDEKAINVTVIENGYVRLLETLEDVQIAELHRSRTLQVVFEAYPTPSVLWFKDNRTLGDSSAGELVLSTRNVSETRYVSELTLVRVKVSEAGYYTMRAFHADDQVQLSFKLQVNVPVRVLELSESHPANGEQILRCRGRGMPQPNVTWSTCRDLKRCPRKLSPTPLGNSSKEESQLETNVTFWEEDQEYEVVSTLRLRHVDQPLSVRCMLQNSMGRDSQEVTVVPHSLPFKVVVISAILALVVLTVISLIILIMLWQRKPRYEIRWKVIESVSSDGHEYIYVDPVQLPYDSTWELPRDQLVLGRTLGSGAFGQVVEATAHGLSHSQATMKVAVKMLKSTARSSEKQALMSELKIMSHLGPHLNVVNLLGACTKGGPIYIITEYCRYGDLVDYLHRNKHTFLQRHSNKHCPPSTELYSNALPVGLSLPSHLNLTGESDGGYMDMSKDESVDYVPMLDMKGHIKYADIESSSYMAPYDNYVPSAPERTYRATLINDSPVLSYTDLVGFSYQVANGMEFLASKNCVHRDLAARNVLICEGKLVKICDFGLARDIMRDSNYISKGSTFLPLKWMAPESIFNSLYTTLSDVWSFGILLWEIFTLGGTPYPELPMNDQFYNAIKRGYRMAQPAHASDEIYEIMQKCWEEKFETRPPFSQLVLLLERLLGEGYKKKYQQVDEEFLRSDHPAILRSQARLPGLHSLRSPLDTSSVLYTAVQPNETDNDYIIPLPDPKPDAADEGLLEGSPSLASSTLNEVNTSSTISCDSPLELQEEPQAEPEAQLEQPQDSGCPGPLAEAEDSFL

As to `Cc1ncc(C(=O)NCCN2CCCC2(C)C)cc1NC(=O)c1cnn2cc(-c3cnn4c3OCCC4)sc12` [Example 460, 2-(6,7-dihydro-5H-pyrazolo[5,1-b][1,3]oxazin-3-yl)-N-(5-((2-(2,2-dimethylpyrrolidin-1-yl)ethyl)carbamoyl)-2-methylpyridin-3-yl)pyrazolo[5,1-b]thiazole-7-carboxamide], the results for the IC50 in test [1], in test [2] and in test [3] were 0.3 nM, 1.6 nM and 13.4 nM, respectively.

As for `Cc1ncc(C(=O)NCCN2CCCC23CCC3)cc1NC(=O)c1cnn2cc(-c3cnn4c3CCC4)sc12` [Example 461, N-(5-((2-(5-azaspiro[3.4]octan-5-yl)ethyl)carbamoyl)-2-methylpyridin-3-yl)-2-(5,6-dihydro-4H-pyrrolo[1,2-b]pyrazol-3-yl)pyrazolo[5,1-b]thiazole-7-carboxamide], the IC50 was 0.2 nM in test [1], 0.8 nM in test [2] and 2.1 nM in test [3].

Turning to `COCCn1cc(-c2cn3ncc(C(=O)Nc4cc(NC(=O)CCC5CCCN5C)cnc4C)c3s2)cn1` (stereo not drawn) [Example 462, 2-(1-(2-methoxyethyl)-1H-pyrazol-4-yl)-N-(2-methyl-5-(3-(1-methylpyrrolidin-2-yl)propanamido)pyridin-3-yl)pyrazolo[5,1-b]thiazole-7-carboxamide], the IC50 was 0.7 nM in test [1], 15.3 nM in test [2] and 298 nM in test [3].

For the compound `COCCn1cc(-c2cn3ncc(C(=O)Nc4cc(NC(=O)CCC5CCCN5C(C)C)cnc4C)c3s2)cn1` (stereo not drawn) [Example 463, N-(5-(3-(1-isopropylpyrrolidin-2-yl)propanamido)-2-methylpyridin-3-yl)-2-(1-(2-methoxyethyl)-1H-pyrazol-4-yl)pyrazolo[5,1-b]thiazole-7-carboxamide], the values for the IC50 in test [1], in test [2] and in test [3] were 0.7 nM, 11 nM and 782 nM, respectively.

In the case of `Cc1ncc(NC(=O)C[C@@H]2CCN(C(C)C)C2)cc1NC(=O)c1cnn2cc(-c3cnn(C)c3)sc12` [Example 464, (S)—N-(5-(2-(1-isopropylpyrrolidin-3-yl)acetamido)-2-methylpyridin-3-yl)-2-(1-methyl-1H-pyrazol-4-yl)pyrazolo[5,1-b]thiazole-7-carboxamide], the IC50 in test [1] is 5.2 nM; in test [2], 145 nM; in test [3] it was 2000 nM.

Take `Cc1ncc(NC(=O)C[C@H]2CCN(C(C)C)C2)cc1NC(=O)c1cnn2cc(-c3cnn(C)c3)sc12` [Example 465, (R)—N-(5-(2-(1-isopropylpyrrolidin-3-yl)acetamido)-2-methylpyridin-3-yl)-2-(1-methyl-1H-pyrazol-4-yl)pyrazolo[5,1-b]thiazole-7-carboxamide]: the values for the IC50 in test [1], in test [2] and in test [3] were 3 nM, 73.9 nM and 1860 nM, respectively.

Regarding `COCCn1cc(-c2cn3ncc(C(=O)Nc4cc(NC(=O)C[C@@H]5CCN(C(C)C)C5)cnc4C)c3s2)cn1` [Example 466, (S)—N-(5-(2-(1-isopropylpyrrolidin-3-yl)acetamido)-2-methylpyridin-3-yl)-2-(1-(2-methoxyethyl)-1H-pyrazol-4-yl)pyrazolo[5,1-b]thiazole-7-carboxamide], the figures for the IC50 in test [1], in test [2] and in test [3] were 9 nM, 261 nM and 350 nM, respectively.

On to `COCCn1cc(-c2cn3ncc(C(=O)Nc4cc(NC(=O)CN5CCC5C(C)C)cnc4C)c3s2)cn1` (stereo not drawn) [Example 467, N-(5-(2-(2-isopropylazetidin-1-yl)acetamido)-2-methylpyridin-3-yl)-2-(1-(2-methoxyethyl)-1H-pyrazol-4-yl)pyrazolo[5,1-b]thiazole-7-carboxamide], for which the IC50 in test [1] is 0.4 nM; in test [2], 3 nM; in test [3] it was 4.4 nM.

Turning to `Cc1ncc(NC(=O)CC2CN(C)C2)cc1NC(=O)c1cnn2cc(-c3cnn4c3CCC4)sc12` [Example 468, 2-(5,6-dihydro-4H-pyrrolo[1,2-b]pyrazol-3-yl)-N-(2-methyl-5-(2-(1-methylazetidin-3-yl)acetamido)pyridin-3-yl)pyrazolo[5,1-b]thiazole-7-carboxamide], the IC50 was 2.1 nM in test [1], 149 nM in test [2] and 2000 nM in test [3].

For `Cc1ncc(C(=O)NCC2CCCN2C)cc1NC(=O)c1cnn2cc(-c3cnn4c3CCC4)sc12` (stereo not drawn) [Example 469, 2-(5,6-dihydro-4H-pyrrolo[1,2-b]pyrazol-3-yl)-N-(2-methyl-5-(((1-methylpyrrolidin-2-yl)methyl)carbamoyl)pyridin-3-yl)pyrazolo[5,1-b]thiazole-7-carboxamide], the figures for the half-maximal inhibitory concentration (IC50) in test [1], in test [2] and in test [3] were 0.3 nM, 5.5 nM and 40.5 nM, respectively.

As for `Cc1ncc(C(=O)NCC2CCCN2C)cc1NC(=O)c1cnn2cc(-c3cnn4c3OCCC4)sc12` (stereo not drawn) [Example 470, 2-(6,7-dihydro-5H-pyrazolo[5,1-b][1,3]oxazin-3-yl)-N-(2-methyl-5-(((1-methylpyrrolidin-2-yl)methyl)carbamoyl)pyridin-3-yl)pyrazolo[5,1-b]thiazole-7-carboxamide], the IC50 in test [1] came out at 0.5 nM; in test [2], 6.8 nM; in test [3] it was 109 nM.

In the case of `Cc1ncc(NC(=O)CNC2CCC2)cc1NC(=O)c1cnn2cc(-c3cnn4c3CCC4)sc12` [Example 471, N-(5-(2-(cyclobutylamino)acetamido)-2-methylpyridin-3-yl)-2-(5,6-dihydro-4H-pyrrolo[1,2-b]pyrazol-3-yl)pyrazolo[5,1-b]thiazole-7-carboxamide], the figures for the IC50 in test [1], in test [2] and in test [3] were 0.1 nM, 1 nM and 3.4 nM, respectively.

As for `Cc1ncc(C(=O)NCCN2CCCC23CCC3)cc1NC(=O)c1cnn2cc(-c3cnn4c3COCC4)sc12` [Example 472, N-(5-((2-(5-azaspiro[3.4]octan-5-yl)ethyl)carbamoyl)-2-methylpyridin-3-yl)-2-(6,7-dihydro-4H-pyrazolo[5,1-c][1,4]oxazin-3-yl)pyrazolo[5,1-b]thiazole-7-carboxamide], the IC50 in test [1] stood at 0.4 nM; in test [2], 2.8 nM; in test [3], 5.4 nM.

`Cc1ncc(NC(=O)CN2CCC[C@@H]2C)cc1NC(=O)c1cnn2cc(-c3cnn4c3COCC4)sc12` [Example 473, (S)-2-(6,7-dihydro-4H-pyrazolo[5,1-c][1,4]oxazin-3-yl)-N-(2-methyl-5-(2-(2-methylpyrrolidin-1-yl)acetamido)pyridin-3-yl)pyrazolo[5,1-b]thiazole-7-carboxamide]: the IC50 in test [1] was 0.4 nM; in test [2], 4.8 nM; in test [3] it was 5.3 nM.

For the compound `Cc1ncc(NC(=O)CN2CCC3(CC3)C2)cc1NC(=O)c1cnn2cc(-c3cnn4c3COCC4)sc12` [Example 474, N-(5-(2-(5-azaspiro[2.4]heptan-5-yl)acetamido)-2-methylpyridin-3-yl)-2-(6,7-dihydro-4H-pyrazolo[5,1-c][1,4]oxazin-3-yl)pyrazolo[5,1-b]thiazole-7-carboxamide], the IC50 in test [1] was determined as 0.2 nM; in test [2], 1.7 nM; in test [3] it was 3.9 nM.

For the compound `Cc1ncc(NC(=O)CN2CCC23CCC3)cc1NC(=O)c1cnn2cc(-c3cnn4c3COCC4)sc12` [Example 475, N-(5-(2-(1-azaspiro[3.3]heptan-1-yl)acetamido)-2-methylpyridin-3-yl)-2-(6,7-dihydro-4H-pyrazolo[5,1-c][1,4]oxazin-3-yl)pyrazolo[5,1-b]thiazole-7-carboxamide], the IC50 in test [1] stood at 0.2 nM; in test [2], 1.4 nM; in test [3] it was 2.3 nM.
